Test system: H. pylori 26695
Assay: In vivo inhibition of HsrA: RNA-Seq transcriptomic analysis of exposed cells
Assay type: cell-based, Helicobacter pylori
Conditions: for log2 Fold Change: exposed to lethal concentrations vs control
Description: Bacterial growth from three blood agar plates of H. pylori ATCC 700392 (aka 26695) incubated for 48 h at 37 °C under microaerobic conditions was aseptically resuspended in BHI + FBS and adjusted to 10^7 CFU/mL. BHI broth cultures were incubated microaerobically at 37 °C for 24 h. […] At this time, bacterial growth was stopped by adding 1.5 mL ice-cold RNA stop solution (95% absolute ethanol, 5% acid-buffered phenol) and subsequently incubated on ice. Control samples were exposed to the same amount of DMSO instead of the inhibitor. Helicobacter cells from all samples were harvested by centrifugation (4000 rpm at 4 °C for 10 min), then the pellets were quickly frozen by immersion in liquid nitrogen and stored at −80 °C.
RNA-Seq analysis was performed by GENEWIZ (Azenta Life Sciences, Leipzig, Germany). Frozen cell pellets from two biological replicates of each treatment condition were properly submitted to GENEWIZ in dry ice. RNA-Seq libraries were prepared according to standard protocols via rRNA depletion, RNA fragmentation and random priming, reverse transcription, 5’-phosphorylation and dA-tailing of cDNAs, adaptor ligation, and PCR enrichment. Once the quality of each library was confirmed, they were sequenced on an Illumina NovaSeq 6000 (Illumina, San Diego, CA, USA) with 150-bp paired-ends. Raw sequence reads were filtered to remove possible adapter sequences and nucleotides with poor quality using Trimmomatic v.0.36 [105]. The trimmed reads were subsequently mapped to the H. pylori strain 26695 reference genome NC_000915.1 available on NCBI, by using the Bowtie2 aligner v.2.2.6 [106]. Unique gene hit counts were calculated by using featureCounts from the Subread package v.1.5.2. Only unique reads that fell within the gene regions were counted. Using DESeq2 [108], a comparison of the gene expression between the control and treated groups of samples was performed. The Wald test was used to generate p-values and log2 fold changes. Genes with an adjusted p-value < 0.05 and absolute log2 fold change >1 were considered as differentially expressed genes (DEGs) for each comparison. The RNA-Seq data generated in this study have been deposited in ArrayExpress with the accession number E-MTAB-14255.

NC(=NOC(=O)Nc1ccc(Cl)cc1)c1csc([N+](=O)[O-])c1 [Ligand V, N′-{[(4-chloroanilino)carbonyl]}oxy-5-nitrothiophene-3-carboximidamide]
log2 Fold Change (gene HP0450): -0.486
log2 Fold Change (gene HP0462): -0.540
log2 Fold Change HP0464 (gene HP0464, lethal concentrations of V vs control): 0.429
log2 Fold Change (gene HP0465): -0.541
log2 Fold Change (gene HP0469): 1.295
log2 Fold Change (gene HP0472): 1.301
log2 Fold Change HP0474 (gene HP0474, lethal concentrations of V vs control): 0.428
log2 Fold Change HP0485 (gene HP0485, lethal concentrations of V vs control): 0.392
log2 Fold Change HP0513 (gene HP0513, lethal concentrations of V vs control): 0.406
log2 Fold Change HP0515 (gene HP0515, lethal concentrations of V vs control): 0.192
log2 Fold Change (gene HP0518): -0.587
log2 Fold Change HP0536 (gene HP0536, lethal concentrations of V vs control): 0.397
log2 Fold Change (gene HP0537): -0.567
log2 Fold Change HP0540 (gene HP0540, lethal concentrations of V vs control): 0.190
log2 Fold Change HP0546 (gene HP0546, lethal concentrations of V vs control): 0.161
log2 Fold Change (gene HP0555): -0.497
log2 Fold Change HP0563 (gene HP0563, lethal concentrations of V vs control): 0.320
log2 Fold Change (gene HP0568): -0.470
log2 Fold Change HP0586 (gene HP0586, lethal concentrations of V vs control): 0.156
log2 Fold Change HP0587 (gene HP0587, lethal concentrations of V vs control): 0.303
log2 Fold Change HP0602 (gene HP0602, lethal concentrations of V vs control): 0.450
log2 Fold Change (gene HP0608): -0.470
log2 Fold Change (gene HP0613): 1.327
log2 Fold Change HP0639 (gene HP0639, lethal concentrations of V vs control): 0.172
log2 Fold Change HP0640 (gene HP0640, lethal concentrations of V vs control): 0.392
log2 Fold Change (gene HP0641): -0.474
log2 Fold Change (gene HP0642): -0.561
log2 Fold Change (gene HP0648): -0.611
log2 Fold Change HP0650 (gene HP0650, lethal concentrations of V vs control): 0.145
log2 Fold Change HP0652 (gene HP0652, lethal concentrations of V vs control): 0.477
log2 Fold Change HP0660 (gene HP0660, lethal concentrations of V vs control): 0.172
log2 Fold Change HP0670 (gene HP0670, lethal concentrations of V vs control): 0.376
log2 Fold Change HP0680 (gene HP0680, lethal concentrations of V vs control): 0.219
log2 Fold Change (gene HP0692): 1.329
log2 Fold Change HP0699 (gene HP0699, lethal concentrations of V vs control): 0.318
log2 Fold Change (gene HP0702): -0.528
log2 Fold Change HP0709 (gene HP0709, lethal concentrations of V vs control): 0.245
log2 Fold Change (gene HP0734): -0.529
log2 Fold Change (gene HP0737): -0.509
log2 Fold Change (gene HP0741): -0.519
log2 Fold Change HP0742 (gene HP0742, lethal concentrations of V vs control): 0.440
log2 Fold Change HP0748 (gene HP0748, lethal concentrations of V vs control): 0.146
log2 Fold Change HP0750 (gene HP0750, lethal concentrations of V vs control): 0.398
log2 Fold Change (gene HP0755): -0.518
log2 Fold Change (gene HP0759): 1.350
log2 Fold Change HP0763 (gene HP0763, lethal concentrations of V vs control): 0.150
log2 Fold Change (gene HP0765): -0.541
log2 Fold Change (gene HP0772): -0.471
log2 Fold Change HP0773 (gene HP0773, lethal concentrations of V vs control): 0.301
log2 Fold Change HP0782 (gene HP0782, lethal concentrations of V vs control): 0.353
log2 Fold Change HP0796 (gene HP0796, lethal concentrations of V vs control): 0.282
log2 Fold Change HP0803 (gene HP0803, lethal concentrations of V vs control): 0.182
log2 Fold Change HP0805 (gene HP0805, lethal concentrations of V vs control): 0.416
log2 Fold Change (gene HP0810): -0.532
log2 Fold Change (gene HP0819): -0.529
log2 Fold Change HP0820 (gene HP0820, lethal concentrations of V vs control): 0.198
log2 Fold Change HP0823 (gene HP0823, lethal concentrations of V vs control): 0.406
log2 Fold Change HP0833 (gene HP0833, lethal concentrations of V vs control): 0.436
log2 Fold Change HP0836 (gene HP0836, lethal concentrations of V vs control): 0.282
log2 Fold Change (gene HP0840): -0.593
log2 Fold Change HP0858 (gene HP0858, lethal concentrations of V vs control): 0.348
log2 Fold Change (gene HP0861): -0.479
log2 Fold Change HP0864 (gene HP0864, lethal concentrations of V vs control): 0.392
log2 Fold Change HP0872 (gene HP0872, lethal concentrations of V vs control): 0.335
log2 Fold Change (gene HP0885): -0.551
log2 Fold Change HP0890 (gene HP0890, lethal concentrations of V vs control): 0.409
log2 Fold Change HP0897 (gene HP0897, lethal concentrations of V vs control): 0.220
log2 Fold Change HP0898 (gene HP0898, lethal concentrations of V vs control): 0.196
log2 Fold Change HP0900 (gene HP0900, lethal concentrations of V vs control): 0.416
log2 Fold Change HP0909 (gene HP0909, lethal concentrations of V vs control): 0.281
log2 Fold Change (gene HP0916): -0.568
log2 Fold Change (gene HP0935): -0.494
log2 Fold Change (gene HP0936): -0.576
log2 Fold Change (gene HP0939): -0.568
log2 Fold Change HP0946 (gene HP0946, lethal concentrations of V vs control): 0.226
log2 Fold Change HP0948 (gene HP0948, lethal concentrations of V vs control): 0.237
log2 Fold Change HP0949 (gene HP0949, lethal concentrations of V vs control): 0.337
log2 Fold Change (gene HP0953): -0.500
log2 Fold Change HP0955 (gene HP0955, lethal concentrations of V vs control): 0.173
log2 Fold Change HP0963 (gene HP0963, lethal concentrations of V vs control): 0.462
log2 Fold Change HP0976 (gene HP0976, lethal concentrations of V vs control): 0.322
